This note sets out measurements from patent US20230016424A1, “HYBRID AMIDE DERIVATIVES OF AMPHOTERICIN B” (The Board of Trustees of the University of Illinois, priority 2019, published 2023).

For one assay, the system named is A. fumigatus 1163. In words: MIC. The assay is classed as cell-based.
Assay [1] relates to C. albicans SN250, C. albicans, C. krusei, C. glabrata, C. tropicalis, A. fumigatus 91, 1163, 1100. In words: Average MIC over the tested strains. The assay is classed as cell-based. Set-up: Avg. MIC of AmB amide: unit not given here. The settings on record: for MIC: average over the 8 listed strains.
In a further assay the test system is C. tropicalis. In words: MIC. In kind it is cell-based.
In another assay the test system is A. fumigatus 1100. In words: MIC. In kind it is cell-based.
Another assay has as its system C. glabrata. In words: MIC. The assay is classed as cell-based.
A further assay deals with C. krusei. In words: MIC. The assay is classed as cell-based.
The next assay deals with A. fumigatus 91. In words: MIC. In kind it is cell-based.
Another assay has as its system C. albicans SN250. In words: MIC. The assay is classed as cell-based, Candida albicans.
The next assay deals with C. albicans. In words: MIC. In kind it is cell-based.
Setting [2] is: Tables 8 and 9, average over the 8 listed strains.

SMILES strings stand for the structures. Converted amounts (≈) assume the structure as drawn.

`CC1C=CC=CC=CC=CC=CC=CC=CC(OC2OC(C)C(O)C(N)C2O)CC2OC(O)(CC(O)CC(O)C(O)CCC(O)CC(O)CC(=O)OC(C)C(C)C1O)CC(O)C2C(=O)NCCC#N` (centres unmarked) [BO]: the “MIC A. fumigatus 1163” value against A. fumigatus 1163 was 1500 µM (≈ 1460 µg/mL). In addition, in assay [1] (Table 12, C16 amides of C2'epiAmB), the “Average MIC” value is 1.188 µM. For the same compound, in assay [1] (value of the corresponding C16 amide of AmB, not of the C2’epi compound), the “Avg. MIC of AmB amide” value is given as 0.42. Besides, the “MIC C. tropicalis” value against C. tropicalis is 500 µM (≈ 488 µg/mL).

Turning to `CC1C=CC=CC=CC=CC=CC=CC=CC(OC2OC(C)C(O)C(N)C2O)CC2OC(O)(CC(O)CC(O)C(O)CCC(O)CC(O)CC(=O)OC(C)C(C)C1O)CC(O)C2C(=O)NCCS` (centres unmarked) [AB], in the assay with A. fumigatus 1163, the “MIC A. fumigatus 1163” value worked out at 1 µM (≈ 0.983 µg/mL). Besides, in the assay on A. fumigatus 1100, the “MIC A. fumigatus 1100” value turned out to be 1 µM (≈ 0.983 µg/mL). Besides, the “MIC C. glabrata” value with C. glabrata is 0.35 µM (≈ 0.344 µg/mL). Besides, the “MIC C. krusei” value in the assay with C. krusei is 1 µM (≈ 0.983 µg/mL). For the same compound, the MIC in assay [1] was found to be 0.706 µM. In the assay on A. fumigatus 91, the “MIC A. fumigatus 91” value was determined as 1 µM (≈ 0.983 µg/mL). Besides, the “MIC C. tropicalis” value with C. tropicalis is 0.45 µM (≈ 0.442 µg/mL). Besides, the “MIC C. albicans SN250” value against C. albicans SN250 is 0.4 µM (≈ 0.393 µg/mL). Besides, in the assay with C. albicans, the “MIC C. albicans” value turned out to be 0.45 µM (≈ 0.442 µg/mL).

For `CC1C=CC=CC=CC=CC=CC=CC=CC(OC2OC(C)C(O)C(N)C2O)CC2OC(O)(CC(O)CC(O)C(O)CCC(O)CC(O)CC(=O)OC(C)C(C)C1O)CC(O)C2C(=O)NCC(C)(C)O` (centres unmarked) [AI], in the assay on A. fumigatus 1163, the “MIC A. fumigatus 1163” value stood at 1 µM (≈ 0.995 µg/mL). In addition, in the assay on A. fumigatus 1100, the “MIC A. fumigatus 1100” value is 1 µM (≈ 0.995 µg/mL). For the same compound, the “MIC C. glabrata” value against C. glabrata turned out to be 0.25 µM (≈ 0.249 µg/mL). Further, the “MIC C. krusei” value against C. krusei was 1 µM (≈ 0.995 µg/mL). For the same compound, in assay [1], the MIC is reported as 0.675 µM. The “MIC A. fumigatus 91” value against A. fumigatus 91 stood at 1 µM (≈ 0.995 µg/mL). The “MIC C. tropicalis” value with C. tropicalis is 0.45 µM (≈ 0.448 µg/mL). Further, in the assay on C. albicans SN250, the “MIC C. albicans SN250” value is 0.3 µM (≈ 0.299 µg/mL). In addition, the “MIC C. albicans” value against C. albicans stood at 0.4 µM (≈ 0.398 µg/mL).

As to `CC1C=CC=CC=CC=CC=CC=CC=CC(OC2OC(C)C(O)C(N)C2O)CC2OC(O)(CC(O)CC(O)C(O)CCC(O)CC(O)CC(=O)OC(C)C(C)C1O)CC(O)C2C(=O)NC(CO)C(C)(C)C` (centres unmarked) [AF], the “MIC A. fumigatus 1163” value in the assay on A. fumigatus 1163 was determined as 2 µM (≈ 2.05 µg/mL). Also, the “MIC A. fumigatus 1100” value against A. fumigatus 1100 amounted to 2 µM (≈ 2.05 µg/mL). The “MIC C. glabrata” value with C. glabrata came to 0.4 µM (≈ 0.409 µg/mL). Further, the “MIC C. krusei” value against C. krusei was determined as 1 µM (≈ 1.02 µg/mL). Further, in [1], the MIC is recorded as 1.131 µM. For the same compound, in the assay on A. fumigatus 91, the “MIC A. fumigatus 91” value was determined as 2 µM (≈ 2.05 µg/mL). The “MIC C. tropicalis” value in the assay on C. tropicalis came to 0.75 µM (≈ 0.767 µg/mL). For the same compound, the “MIC C. albicans SN250” value in the assay on C. albicans SN250 is 0.4 µM (≈ 0.409 µg/mL). Further, the “MIC C. albicans” value against C. albicans amounted to 0.5 µM (≈ 0.512 µg/mL).

Turning to `CC(O)CNC(=O)C1C(O)CC2(O)CC(O)CC(O)C(O)CCC(O)CC(O)CC(=O)OC(C)C(C)C(O)C(C)C=CC=CC=CC=CC=CC=CC=CC(OC3OC(C)C(O)C(N)C3O)CC1O2` (centres unmarked) [AH], in the assay with A. fumigatus 1163, the “MIC A. fumigatus 1163” value is 1 µM (≈ 0.981 µg/mL). The “MIC A. fumigatus 1100” value against A. fumigatus 1100 was 1 µM (≈ 0.981 µg/mL). In the assay on C. glabrata, the “MIC C. glabrata” value is 0.2 µM (≈ 0.196 µg/mL). The “MIC C. krusei” value against C. krusei turned out to be 0.75 µM (≈ 0.736 µg/mL). Also, in [1], the MIC is recorded as 0.763 µM. The “MIC A. fumigatus 91” value in the assay with A. fumigatus 91 was 2 µM (≈ 1.96 µg/mL). For the same compound, in the assay on C. tropicalis, the “MIC C. tropicalis” value is 0.45 µM (≈ 0.442 µg/mL). Also, in the assay with C. albicans SN250, the “MIC C. albicans SN250” value was determined as 0.35 µM (≈ 0.343 µg/mL). Also, the “MIC C. albicans” value in the assay on C. albicans turned out to be 0.35 µM (≈ 0.343 µg/mL).

As for `CC1C=CC=CC=CC=CC=CC=CC=CC(OC2OC(C)C(O)C(N)C2O)CC2OC(O)(CC(O)CC(O)C(O)CCC(O)CC(O)CC(=O)OC(C)C(C)C1O)CC(O)C2C(=O)NC1CC1` (centres unmarked) [AR3], the “MIC A. fumigatus 1163” value in the assay on A. fumigatus 1163 was determined as 500 µM (≈ 482 µg/mL). Moreover, the “MIC C. krusei” value against C. krusei came out at 250 µM (≈ 241 µg/mL). The “Average MIC” value in assay [1] (setting [2]) was 438 µM. In addition, the “MIC C. tropicalis” value in the assay on C. tropicalis came to 250 µM (≈ 241 µg/mL). Further, in the assay on C. albicans, the “MIC C. albicans” value is 250 µM (≈ 241 µg/mL).

For the compound `CC1C=CC=CC=CC=CC=CC=CC=CC(OC2OC(C)C(O)C(N)C2O)CC2OC(O)(CC(O)CC(O)C(O)CCC(O)CC(O)CC(=O)OC(C)C(C)C1O)CC(O)C2C(=O)NC1CCCC1` (centres unmarked) [AR5], the “MIC A. fumigatus 1100” value in the assay with A. fumigatus 1100 turned out to be 1500 µM (≈ 1490 µg/mL). In addition, in the assay on C. krusei, the “MIC C. krusei” value came out at 500 µM (≈ 496 µg/mL). The “Average MIC” value in assay [1] (setting [2]) amounted to 1063 µM. In addition, in the assay on C. tropicalis, the “MIC C. tropicalis” value turned out to be 500 µM (≈ 496 µg/mL). Also, the “MIC C. albicans SN250” value with C. albicans SN250 came out at 500 µM (≈ 496 µg/mL).
